Data taken from patent US12351580B2, “NLRP3 modulators” (Innate Tumor Immunity, Inc., priority 2017, dated 2025).

What was measured:
Format in all cases: cell-based
[1] = molecular target: T1, TLR7 (Homo sapiens, UniProt Q9NYK1); experiment: In vitro human TLR7 binding reporter assay (HEK-Blue, NF-kB/AP1-inducible SEAP); settings: activity range symbols
T1 construct: host or cells: HEK-Blue cells (human HEK) co-expressing TLR7 and an NF-kB/AP1-inducible SEAP reporter
T1 sequence (Q9NYK1 27-1049): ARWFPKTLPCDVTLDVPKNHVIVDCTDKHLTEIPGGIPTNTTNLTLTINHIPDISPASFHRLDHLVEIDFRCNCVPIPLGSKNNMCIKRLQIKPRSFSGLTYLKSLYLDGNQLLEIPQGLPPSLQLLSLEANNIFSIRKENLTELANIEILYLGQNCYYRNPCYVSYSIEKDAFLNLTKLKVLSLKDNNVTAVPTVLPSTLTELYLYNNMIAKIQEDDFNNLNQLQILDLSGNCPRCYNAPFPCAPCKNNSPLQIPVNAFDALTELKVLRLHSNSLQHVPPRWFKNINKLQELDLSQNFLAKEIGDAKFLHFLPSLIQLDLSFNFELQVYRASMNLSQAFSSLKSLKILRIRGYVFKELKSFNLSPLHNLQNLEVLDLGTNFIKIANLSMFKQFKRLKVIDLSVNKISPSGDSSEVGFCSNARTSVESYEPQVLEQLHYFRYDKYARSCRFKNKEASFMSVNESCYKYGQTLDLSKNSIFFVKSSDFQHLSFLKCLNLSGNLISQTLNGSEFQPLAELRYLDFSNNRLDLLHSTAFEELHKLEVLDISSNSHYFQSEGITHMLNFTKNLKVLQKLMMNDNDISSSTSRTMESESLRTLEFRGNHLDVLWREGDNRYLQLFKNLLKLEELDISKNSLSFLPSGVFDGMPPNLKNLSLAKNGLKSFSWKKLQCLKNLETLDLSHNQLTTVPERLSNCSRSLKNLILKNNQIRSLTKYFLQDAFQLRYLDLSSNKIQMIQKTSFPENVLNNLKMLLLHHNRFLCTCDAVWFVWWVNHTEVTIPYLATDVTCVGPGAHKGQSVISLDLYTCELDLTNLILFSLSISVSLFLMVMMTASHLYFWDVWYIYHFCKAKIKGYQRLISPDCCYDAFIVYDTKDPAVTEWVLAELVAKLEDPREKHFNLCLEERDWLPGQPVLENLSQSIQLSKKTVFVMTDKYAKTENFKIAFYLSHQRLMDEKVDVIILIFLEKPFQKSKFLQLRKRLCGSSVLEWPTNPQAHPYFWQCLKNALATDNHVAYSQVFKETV
Description: (§1) In Vitro Human TLR7 and TLR8 Binding Reporter Assays
(§2) Logarithmically-growing human HEK-Blue cells co-expressing a TLR7 or TLR8 gene and a NF-kB/AP1-inducible SEAP (secreted embryonic alkaline phosphatase; Invivogen, San Diego, CA) reporter gene are added to individual wells of a 384-well plate (15,000 cells per 20 μL per well) and maintained for 24 h at 37° C., 5% CO2. Test compounds or DMSO are distributed to separate wells the next day using acoustic liquid handling technology (100 nL per well) and cells are subsequently incubated for 18 h at 37° C., 5% CO2. Cellular SEAP production is measured using an Envision plate reader instrument thirty minutes after adding freshly-made Quanti-Blue reagent (prepared by following manufacturer instructions; Invivogen, San Diego, CA) to the HEK-Blue TLR Nf-kB-SEAP cell reactions. All EC50 values (half-maximal effective concentration) are determined using proprietary data analysis software.

[2] = molecular target: T2, hNLRP3 (Homo sapiens, UniProt Q96P20); experiment: Measurement of IL-1β production in PMA-differentiated THP-1 cells (hNLRP3 agonist; ELISA, alternative and hTRF procedures)
T2 construct: THP-1 cells were purchased from the American Type Culture Collection; host or cells: THP-1 cells, PMA-differentiated
Description: Measurement of IL-1β production in PMA-differentiated THP-1 cells THP-1 cells were purchased from the American Type Culture Collection and sub-cultured according to instructions from the supplier. Prior to experiments, cells were cultured in RPMI 1640 containing 10% heat inactivated FBS, penicillin (100 units/ml) and streptomycin (100 μg/ml), and maintained in log phase prior to experimental setup. Prior to the experiment THP-1 were treated with PMA (Phorbol 12-myristate 13-acetate) ([…]) for 24 hours. The day of the experiment the media was removed and attaching cells were treated with trypsin for 2 minutes, cells were then collected, washed with PBS (phosphate buffer saline), spin down, resuspended in 2% heat inactivated FBS with RPMI at a concentration of 1×10^6 cells/ml, and 100 μl was plated in a 96 well plate. Compounds were dissolved in dimethyl sulfoxide (DMSO) and added to the culture medium to achieve desired concentration (e.g. 100, 30, 10, 3, 1, 0.3 or 0.1 μM). Cells were incubated with compounds for 4 hours. Cell free supernatant was collected and the production of […] was evaluated by ELISA. A vehicle only control was run concurrently with each experiment. Final DMSO concentration was 1%.
Measurement of IL-1β Production in PMA-Differentiated THP-1 Cells (Alternative Procedure)
THP-1 cells were purchased from the American Type Culture Collection and sub-cultured according to instructions from the supplier. Prior to experiments, cells were cultured in RPMI 1640 containing 10% heat inactivated FBS, penicillin (100 units/ml), streptomycin (100 μg/ml), HEPES (10 mM) and sodium pyruvate (1 mM) and maintained in log phase prior to experimental setup. Prior to the experiment, THP-1 cells were treated with PMA (Phorbol 12-myristate 13-acetate) (20 μg/ml) overnight. The day of the experiment, the media was removed and attached cells were treated with trypsin for 2 minutes, cells were then collected, washed with PBS (phosphate buffer saline), pelleted by centrifugation and resuspended in 2% heat inactivated FBS with RPMI at a concentration of 50,000 cells/well in a 384 well plate. Cell free supernatant was collected and the production of IL-1β was evaluated by ELISA. Compounds were dissolved in dimethyl sulfoxide (DMSO) and added to the culture medium to achieve desired concentration (e.g. 100, 30, 10, 3, 1, 0.3 or 0.1 μM). Cells were incubated with compounds for 2 hours. A vehicle only control was run concurrently with each experiment. Final DMSO concentration was 1%.
Measurement of IL-1β Production—hTRF Protocol (Second Alternative Procedure)
Serial dilutions of compounds in DMSO were added to low volume 384 well plates at 100 nl/well using an ECHO 550 acoustic dispenser (Labcyte) to achieve final starting concentration of 10 μM in assay.
THP-1 cells in RPMI (Gibco, 11875) media with 10% FBS at a density of 1×10^6 cell/ml in a T175 flask were treated with a final concentration of phorbol 12-myristate 13-acetate (PMA) (Sigma, P1585) of 50 ng/ml overnight at 37° C. at 5% CO2 for differentiation. Cells were harvested the next day after rinsing well with dPBS using 0.5% trypsin. A cell solution was prepared of 1×10^6 cells/ml for 50,000 cells in 50 μl/well in RPMI media with 2% FBS. Cells were plated using a multichannel pipette onto the compound dilutions in Greiner, 384 well, black clear bottom tissue culture treated plates (781090). The plates were incubated in 37° C. incubator at 5% CO2 for 2 hours.
After the 2 hour incubation, the cell plates were spun in the centrifuge for 5 minutes at 1200 rpm. Using the Felix (CyBio), 8 μl of the supernatant was transferred to 384 well, low volume, white proxy plates. (Perkin Elmer, 6008230). A human IL1beta hTRF kit was used to analyze the supernatant (CISBIO, 62HIL1BPEG). The kit instructions were followed for preparing the IL1Beta standard curve and then the antibodies from the kit were diluted 1:40 rather than 1:20 as kit instructed.

[3] = molecular target: T3, TLR8 (Homo sapiens, UniProt Q9NR97); experiment: In vitro human TLR8 binding reporter assay (HEK-Blue, NF-kB/AP1-inducible SEAP); settings: activity range symbols
T3 construct: host or cells: HEK-Blue cells (human HEK) co-expressing TLR8 and an NF-kB/AP1-inducible SEAP reporter
T3 sequence (Q9NR97 27-1041): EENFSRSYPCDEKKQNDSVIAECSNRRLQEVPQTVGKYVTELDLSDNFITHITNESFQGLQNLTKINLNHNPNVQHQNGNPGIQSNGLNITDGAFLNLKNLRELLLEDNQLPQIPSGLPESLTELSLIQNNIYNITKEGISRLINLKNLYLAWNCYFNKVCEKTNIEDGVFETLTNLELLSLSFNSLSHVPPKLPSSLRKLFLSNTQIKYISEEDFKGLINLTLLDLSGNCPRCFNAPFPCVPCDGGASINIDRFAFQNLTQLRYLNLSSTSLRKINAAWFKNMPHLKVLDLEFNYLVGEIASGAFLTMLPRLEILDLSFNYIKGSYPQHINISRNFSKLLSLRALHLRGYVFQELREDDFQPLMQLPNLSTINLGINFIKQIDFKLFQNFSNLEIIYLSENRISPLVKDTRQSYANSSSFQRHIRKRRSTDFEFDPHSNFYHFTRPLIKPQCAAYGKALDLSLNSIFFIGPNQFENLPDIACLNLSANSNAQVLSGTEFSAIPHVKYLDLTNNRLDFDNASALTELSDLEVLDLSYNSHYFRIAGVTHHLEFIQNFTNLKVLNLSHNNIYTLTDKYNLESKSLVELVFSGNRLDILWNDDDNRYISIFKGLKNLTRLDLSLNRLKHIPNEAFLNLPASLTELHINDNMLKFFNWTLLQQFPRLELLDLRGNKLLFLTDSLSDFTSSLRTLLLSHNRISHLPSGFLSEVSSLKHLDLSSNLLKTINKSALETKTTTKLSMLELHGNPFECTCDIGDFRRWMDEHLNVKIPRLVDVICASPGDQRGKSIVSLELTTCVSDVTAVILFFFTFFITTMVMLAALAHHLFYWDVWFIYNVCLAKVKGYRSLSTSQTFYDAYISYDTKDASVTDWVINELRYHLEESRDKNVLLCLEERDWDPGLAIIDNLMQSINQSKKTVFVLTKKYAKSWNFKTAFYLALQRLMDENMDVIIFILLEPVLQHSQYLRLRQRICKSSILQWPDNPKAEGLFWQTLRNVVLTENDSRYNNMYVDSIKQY
Description: as §1, §2

T2 sequence (Q96P20 whole entry): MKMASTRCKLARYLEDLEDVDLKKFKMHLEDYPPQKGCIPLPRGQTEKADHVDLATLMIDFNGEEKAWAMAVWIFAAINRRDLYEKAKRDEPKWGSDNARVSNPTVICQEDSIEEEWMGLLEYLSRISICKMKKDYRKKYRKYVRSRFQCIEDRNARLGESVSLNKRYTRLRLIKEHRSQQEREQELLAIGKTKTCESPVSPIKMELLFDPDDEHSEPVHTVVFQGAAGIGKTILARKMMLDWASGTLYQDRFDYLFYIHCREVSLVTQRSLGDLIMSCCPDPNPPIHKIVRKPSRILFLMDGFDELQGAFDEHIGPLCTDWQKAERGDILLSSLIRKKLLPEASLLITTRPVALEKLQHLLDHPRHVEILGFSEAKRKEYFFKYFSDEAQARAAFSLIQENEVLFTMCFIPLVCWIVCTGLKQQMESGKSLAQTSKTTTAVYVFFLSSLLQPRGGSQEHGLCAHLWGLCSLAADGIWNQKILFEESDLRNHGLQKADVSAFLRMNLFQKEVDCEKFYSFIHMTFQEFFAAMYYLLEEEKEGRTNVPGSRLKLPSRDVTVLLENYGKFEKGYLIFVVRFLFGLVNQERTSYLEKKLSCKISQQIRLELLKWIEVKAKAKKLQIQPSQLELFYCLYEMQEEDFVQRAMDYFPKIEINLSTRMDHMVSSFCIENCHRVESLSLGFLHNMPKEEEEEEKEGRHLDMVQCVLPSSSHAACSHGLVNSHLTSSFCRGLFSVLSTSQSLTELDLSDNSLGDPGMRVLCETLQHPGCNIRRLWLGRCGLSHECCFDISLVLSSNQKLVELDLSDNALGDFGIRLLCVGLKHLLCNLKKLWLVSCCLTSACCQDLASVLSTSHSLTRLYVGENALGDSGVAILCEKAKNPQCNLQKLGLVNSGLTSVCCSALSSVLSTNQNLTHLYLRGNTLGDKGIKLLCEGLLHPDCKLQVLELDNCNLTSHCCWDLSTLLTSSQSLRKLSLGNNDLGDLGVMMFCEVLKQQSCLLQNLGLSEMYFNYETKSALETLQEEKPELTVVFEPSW

SMILES | EC50 [1] | EC50 [2] | EC50 [3]
Nc1nc2cc(-c3cccnc3)ccc2c2[nH]c(CN3CCCCC3=O)nc12 [Compound 426] | > 100 µM | 4.3 µM | –
Nc1nc2cc(Br)ccc2c2[nH]c(CN3CCCCC3=O)nc12 [Compound 428] | > 100 µM | 5.1 µM | –
Nc1nc2cc(-n3cccn3)ccc2c2[nH]c(CN3CCOC3=O)nc12 [Compound 429] | > 100 µM | 5.8 µM | –
CCCn1c(CN(CC)C(C)=O)nc2c(N)nc3cc(Br)ccc3c21 [Compound 435] | > 100 µM | 19.3 µM | –

Second part, the compound after the results:

EC50 [1] | EC50 [2] | EC50 [3] | SMILES
> 100 µM | 5.9 µM | – | CCN(C(C)=O)C(C)c1nc2c(N)nc3cc(Br)ccc3c2[nH]1 (stereo not shown) [Compound 182, N-[1-(4-amino-7-bromo-1H-imidazo[4,5-c]quinolin-2-yl)ethyl]-N-ethylacetamide]
> 100 µM | – | > 100 µM | CCN(Cc1nc2c(N)nc3ccccc3c2n1CCC(=O)NC)C(C)=O [Compound 199]
> 100 µM | 0.79 µM | – | CCN(Cc1nc2c(N)nc3cc(-c4cccs4)ccc3c2[nH]1)C(=O)OC(C)(C)C [Compound 424]
> 100 µM | 0.44 µM | – | CCN(Cc1nc2c(N)nc3cc(-c4cccs4)ccc3c2[nH]1)C(C)=O [Compound 425]
